Earlier results, collected in US9358210B2, “Sustained-release pellets containing tacrolimus as an active ingredient” (priority 2010, dated 2016).

solubility in water: 1 to 2 µg/mL
Structure (SMILES): C=CC[C@@H]1/C=C(\C)C[C@H](C)C[C@H](OC)[C@H]2O[C@@](O)(C(=O)C(=O)N3CCCC[C@H]3C(=O)O[C@H](/C(C)=C/[C@@H]3CC[C@@H](O)[C@H](OC)C3)[C@H](C)[C@@H](O)CC1=O)[C@H](C)C[C@@H]2OC [tacrolimus, 17-allyl-1,14-dihydroxy-12-[2-(4-hydroxy-3-methoxycyclohexyl)-1-methylvinyl]-23,25-dimethoxy-13,19,21,27-tetramethyl-11,28-dioxa-4-azatricyclo[22.3.1.0]octacos-18-ene-2,3,10,16-tetraone]
